Assay results published in US20050255537A1, “Method for monitoring treatment with a parathyroid hormone” (priority 1999, published 2005).

System: BSAP and PICP serum levels, NTX urine levels
Assay: Example 3 clinical trial of rhPTH(1-34) vs alendronate: bone markers
Format: in vivo, human
Conditions: alendronate 10 mg per day
Experimental: • Number of Subjects: • rhPTH(1-34): 73 enrolled, 51 finished. • Alendronate (Fosamax®): 73 enrolled, 57 finished. • Diagnosis and Inclusion Criteria: Women aged 65±8 years, postmenopausal for 19±19 years, selected for a baseline spine bone mineral density of 0.8±0.1 and a T value of −2.2. Dosage and Administration: • Test Product (blinded) • rhPTH(1-34): 40 μg/day, given subcutaneously • Reference (Control) Therapy (blinded) • Alendronate (Fosamax®): 10 mg per patient per day • Duration of Treatment: • rhPTH(1-34): 12-18 months, with follow up from time of withdrawal of drug to 18 months of study. • Alendronate: 12-18 months, with follow up from time of withdrawal of drug to 18 months of study. • Criteria for Evaluation: Spine x-ray, serum biological markers (calcium, bone-specific alkaline phosphatase, procollagen I carboxy-terminal propeptide); urine makers (calcium, N-telopeptide, fir deoxypyridinoline); 1,25-dihydroxyvitamin D; bone mineral density spine, hip, wrist, and total body.
Measures of BSAP, PICP, and NTX levels were determined for each patient through the course of therapy generally according to methods described above in Example 1.

NCCCC(O)(P(=O)(O)O)P(=O)(O)O [alendronate, reference compound]
PICP serum level (FIG. 8): a decrease in PICP was observed | NTX urine levels (FIG. 9): generally declined slightly during the first 6 months of the study and then remained diminished for the duration of the study | BSAP serum level (after about 4 months, FIG. 7): A decrease in BSAP level was observed
